Results taken from article PMC8837603, “Lapcin, a potent dual topoisomerase I/II inhibitor discovered by soil metagenome guided total chemical synthesis” (Nature Communications, 2022).

Columns and labels:
[1] = tested on: diverse microbial pathogens; assay: Antimicrobial/antifungal susceptibility, whole panel; assay type: cell-based; settings: at the highest concentration tested
Procedure: Lapcin was tested for antimicrobial activity against the bacteria and fungi shown in Supplementary Table 4. […] Ciprofloxacin (Sigma, USA) and Nystatin (Sigma, USA) were used as positive control for bacteria and fungi, respectively. Lapcin was dissolved in sterile DMSO to make a 3.2 mg/mL working solution. Lapcin was diluted across 96-well plates using a 2-fold serial dilution method to give a concentration range of 64 to 0.06 µg/mL in 50 µL of LB broth. A single colony of each test organism was grown in either 5 mL LB (bacteria) or YPD (fungi) medium overnight at 37 °C or 30 °C, respectively. Saturated overnight cultures were diluted 5,000-fold, and then 50 µL of dilute cells were transferred into each well of the assay plates. Finally, each well contains a total volume of 100 µL.

[2] = tested on: human topoisomerase II alpha; assay: Topoisomerase II DNA cleavage assay; assay type: biochemical; settings: supercoil pBR322, ATP, 30 min, 37 °C; linear DNA; two independent times
Procedure: Topoisomerase I/II cleavage assay: A commercial Human topoisomerase cleavage assay kit (Inspiralis, UK) was used in this study with a slight modification. Camptothecin (Sigma, USA) and Etoposide (Sigma, USA) were used as the positive control for topoisomerase I cleavage assay and topoisomerase II cleavage assay, respectively. The assay was performed according to the manufacture’s protocol. Briefly, 29 µL of the master mixture was prepared by adding 3 µL of 10 x assay buffer, 1 µL of 1 µg/µL supercoil pBR322, 1 µL of 30 mM ATP (only used in topoisomerase II cleavage assay), 1.5 µL serial diluted compounds (dissolved in DMSO) and H2O. Finally, 1 µL of 10 U/µL human topoisomerase I/II alpha was added to the reaction mixture. The reaction was incubated for 30 minutes at 37℃. After incubation, 3 µL of 2% (w/v) SDS and 1.5 µL of 10 mg/mL proteinase K was added. The reaction was mixed briefly and incubated for another 30 minutes at 37 ℃. The reaction was stopped by added 10 µL of H2O, 40 µL of STEB stop buffer and 40 µL of Chloroform/isoamyl alcohol (v:v, 24:1). The mixture was vortexed vigorously for 10 secs and centrifuged for 2 minutes. 20 µL of aqueous phase was loaded onto 1% (w/v) agarose gel and separated at 80 V for 2 hours in 0.5% TBE buffer. […]

[3] = target: T1, Human Topo II (Homo sapiens, UniProt P11388); assay: Human Topoisomerase II DNA decatenation assay; assay type: biochemical
T1 construct: purchased TopoGen, USA
Procedure: The decatenation assay was conducted using a Human Topo II decatenation kit (TopoGen, USA). […] Assays were performed according to the manufacturer’s protocol. Briefly, on ice, 19 µL of master mixture was prepared by adding 4 µL of freshly prepared 5 x assay buffer (0.5 M Tris-HCl pH8.0, 1.50 M NaCl, 100 mM MgCl2, 5 mM Dithiothreitol, 300 µg/mL BSA, 20 mM ATP), 1 µL of 200 ng/µL kDNA and 5 µL of serial diluted assay compounds in 200 µL reaction tubes. 1 µL of fresh diluted topoisomerase II (1U) was then added to each reaction tube. The total reaction volume was adjusted to 20 µL with H2O. These reactions were incubated at 37 °C for 30 min and stopped by addition of 4 µL of 5 x Stop Buffer (TopoGen, USA). Samples were loaded directly onto a 1% (w/v) agarose gel containing 0.5 µg/ml ethidium bromide and separated at 140 v for 1 hour in 0.5% TBE buffer. The intensity of released (decatenated) circular rings was quantified using Analytik Jena image software. All values were normalized to the negative control wells. The intensity of decatenated band was used in the determination of IC50 of tested compounds and the curve was drawn in Prism 9 (9.0.0). All experiments were performed in triplicate (n = 3).

[4] = tested on: Enterobacter cloacae ATCC13047; settings: LB, 16 h, 37 °C, n = 2
Procedure: (§1) Lapcin was tested for antimicrobial activity against the bacteria and fungi shown in Supplementary Table 4. […] Lapcin was dissolved in sterile DMSO to make a 3.2 mg/mL working solution. Lapcin was diluted across 96-well plates using a 2-fold serial dilution method to give a concentration range of 64 to 0.06 µg/mL in 50 µL of LB broth. A single colony of each test organism was grown in either 5 mL LB (bacteria) or YPD (fungi) medium overnight at 37 °C or 30 °C, respectively. Saturated overnight cultures were diluted 5,000-fold, and then 50 µL of dilute cells were transferred into each well of the assay plates. Finally, each well contains a total volume of 100 µL.

[5] = tested on: Klebsiella pneumonia ATCC10031; settings: LB, 16 h, 37 °C, n = 2
Procedure: as §1

[6] = tested on: Acinetobacter baumannii ATCC17978; settings: LB, 16 h, 37 °C, n = 2
Procedure: as §1

T1 sequence (P11388 whole entry): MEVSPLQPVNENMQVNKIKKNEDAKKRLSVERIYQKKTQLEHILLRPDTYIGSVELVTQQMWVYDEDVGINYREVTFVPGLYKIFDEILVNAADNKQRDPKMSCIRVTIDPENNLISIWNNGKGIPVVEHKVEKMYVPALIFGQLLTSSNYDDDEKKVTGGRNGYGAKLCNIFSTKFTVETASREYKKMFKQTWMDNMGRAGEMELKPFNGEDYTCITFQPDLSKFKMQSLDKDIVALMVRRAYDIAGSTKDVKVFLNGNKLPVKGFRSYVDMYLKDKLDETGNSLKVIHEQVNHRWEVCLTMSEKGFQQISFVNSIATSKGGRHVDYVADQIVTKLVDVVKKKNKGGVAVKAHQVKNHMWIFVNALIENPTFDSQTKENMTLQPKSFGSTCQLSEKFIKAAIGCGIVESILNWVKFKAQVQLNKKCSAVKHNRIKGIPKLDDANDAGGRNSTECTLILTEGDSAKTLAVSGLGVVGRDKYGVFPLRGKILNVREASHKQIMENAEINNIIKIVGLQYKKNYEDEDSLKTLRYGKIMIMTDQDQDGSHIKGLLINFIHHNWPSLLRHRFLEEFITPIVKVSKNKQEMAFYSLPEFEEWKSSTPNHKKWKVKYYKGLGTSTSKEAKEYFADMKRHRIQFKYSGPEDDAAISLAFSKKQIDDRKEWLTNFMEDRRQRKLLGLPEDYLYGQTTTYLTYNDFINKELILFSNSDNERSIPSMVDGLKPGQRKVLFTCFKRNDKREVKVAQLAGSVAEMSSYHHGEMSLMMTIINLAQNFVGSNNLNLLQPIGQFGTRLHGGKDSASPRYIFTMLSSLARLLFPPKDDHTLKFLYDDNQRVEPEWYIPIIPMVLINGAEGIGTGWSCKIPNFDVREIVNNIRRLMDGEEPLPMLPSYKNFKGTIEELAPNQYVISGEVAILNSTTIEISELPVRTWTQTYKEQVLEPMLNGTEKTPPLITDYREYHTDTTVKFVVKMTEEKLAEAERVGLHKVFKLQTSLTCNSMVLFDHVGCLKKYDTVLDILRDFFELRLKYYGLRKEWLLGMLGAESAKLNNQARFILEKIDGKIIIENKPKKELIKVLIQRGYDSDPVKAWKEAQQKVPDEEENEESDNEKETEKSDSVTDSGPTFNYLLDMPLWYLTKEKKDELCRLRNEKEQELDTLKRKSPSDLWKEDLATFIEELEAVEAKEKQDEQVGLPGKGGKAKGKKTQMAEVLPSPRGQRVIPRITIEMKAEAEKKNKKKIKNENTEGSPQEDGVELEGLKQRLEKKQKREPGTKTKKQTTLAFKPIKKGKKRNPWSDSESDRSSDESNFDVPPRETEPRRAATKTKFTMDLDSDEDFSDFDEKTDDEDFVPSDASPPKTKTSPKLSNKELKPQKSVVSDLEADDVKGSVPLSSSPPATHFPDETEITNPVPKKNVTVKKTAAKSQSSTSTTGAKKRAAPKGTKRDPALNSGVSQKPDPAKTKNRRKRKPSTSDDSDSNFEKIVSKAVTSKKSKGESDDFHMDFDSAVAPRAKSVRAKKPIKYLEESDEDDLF

## CCCCCCCCCCCC(O)CC(=O)N[C@@H](C)C(=O)N[C@@H](CO)C(=O)N[C@@H](C)C(=O)Nc1ccc(-c2nc(-c3nc(C(=O)N[C@@H](CC(N)=O)C(=O)Nc4ccc(C(=O)Nc5ccc(C(=O)Nc6ccc(C(=O)O)cc6)c(O)c5OC(C)C)cc4)cs3)cs2)cc1 (stereo partly drawn) [Lapcin, 4-(4-(4-((2S)-4-amino-2-(2'-(4-((2S)-2-((2S)-3-hydroxy-2-((2S)-2-(3-hydroxytetradecanamido)propanamido)propanamido)propanamido)phenyl)-[2,4'-bithiazole]-4-carboxamido)-4-oxobutanamido)benzamido)-2-hydroxy-3-isopropoxybenzamido)benzoic acid]
[1]
  antimicrobial or antifungal activity: no antimicrobial or antifungal activity
[2]
  accumulation of cleavage product, Topo II: did not observe the accumulation of a cleavage product
[3]
  fold more potent than etoposide, topoisomerase II: ~15 times
[3]; kDNA, 1 U enzyme, 30 min, 37 °C, gel, ethidium bromide, n = 3
  IC50: 7.53 µM
[4]
  MIC, Enterobacter cloacae: > 32 µg/mL
[5]
  MIC, Klebsiella pneumonia: > 32 µg/mL
[6]
  MIC, Acinetobacter baumannii: > 32 µg/mL
